# From patent US20130190403A1, “ADMINISTRATION OF INTRAVENOUS IBUPROFEN TO TRAUMA PATIENTS” (Cumberland Pharmaceuticals Inc., priority 2012, published 2013)
# Tested on: traumatic rib fracture patients
# Test: Retrospective review of traumatic rib fracture patients: intravenous ibuprofen plus narcotics versus narcotics alone
# Type: in vivo, human
structure (smiles),measurement,setting,value
"CC(C)Cc1ccc(C(C)C(=O)O)cc1 (stereo not drawn) [ibuprofen, 2-(4-isobutylphenyl) propionic acid]","daily narcotic requirement, Treatment Group versus Control Group",Day 1 or Day 2,did not differ
same,complications associated with ibuprofen therapy,Treatment group,no significant complications
same,"daily narcotic requirement, Treatment Group versus Control Group",each of Days 3 through 7 (p<0.05),significantly decreased
